# Source: US20130224236A1, “HSV-1 EPITOPES AND METHODS FOR USING SAME” (UNIVERSITY OF WASHINGTON, priority 2010, published 2013)
# B1: UL13: HSV-1 protein UL13 (protein)
# chain: MDESRRQRPAGHVAANLSPQGARQRSFKDWLASYVHSNPHGASGRPSGPSLQDAAVSRSSHGSRHRSGLRERLRAGLSRWRMSRSSHRRASPETPGTAAKLNRPPLRRSQAALTAPPSSPSHILTLTRIRKLCSPVFAINPALHYTTLEIPGARSFGGSGGYGDVQLIREHKLAVKTIKEKEWFAVELIATLLVGECVLRAGRTHNIRGFIAPLGFSLQQRQIVFPAYDMDLGKYIGQLASLRTTNPSVSTALHQCFTELARAVVFLNTTCGISHLDIKCANILVMLRSDAVSLRRAVLADFSLVTLNSNSTIARGQFCLQEPDLKSPRMFGMPTALTTANFHTLVGHGYNQPPELLVKYLNNERAEFTNHRLKHDVGLAVDLYALGQTLLELVVSVYVAPSLGVPVTRFPGYQYFNNQLSPDFALALLAYRCVLHPALFVNSAETNTHGLAYDVPEGIRRHLRNPKIRRAFTDRCINYQHTHKAILSSVALPPELKPLLVLVSRLCHTNPCARHALS
# modifications: human herpesvirus 1
# notes: HSV-1 protein UL13
# B2: UL53: HSV-1 protein UL53/Glycoprotein K (protein)
# chain: MLAVRSLQHLSTVVLITAYGLVLVWYTVFGASPLHRCIYAVRPTGTNNDTALVWMKMNQTLLFLGAPTHPPNGGWRNHAHICYANLIAGRVVPFQVPPDAMNRRIMNVHEAVNCLETLWYTRVRLVVVGWFLYLAFVALHQRRCMFGVVSPAHKMVAPATYLLNYAGRIVSSVFLQYPYTKITRLLCELSVQRQNLVQLFETDPVTFLYHRPAIGVIVGCELMLRFVAVGLIVGTAFISRGACAITYPLFLTITTWCFVSTIGLTELYCILRRGPAPKNADKAAAPGRSKGLSGVCGRCCSIILSGIAVRLCYIAVVAGVVLVALHYEQEIQRRLFDV
# modifications: human herpesvirus 1
# notes: HSV-1 protein UL53/Glycoprotein K
# B3: UL21: HSV-1 protein UL21 (protein)
# chain: MELSYATTMHYRDVVFYVTTDRNRAYFVCGGCVYSVGRPCASQPGEIAKFGLVVRGTGPDDRVVANYVRSELRQRGLQDVRPIGEDEVFLDSVCLLNPNVSSELDVINTNDVEVLDECLAEYCTSLRTSPGVLISGLRVRAQDRIIELFEHPTIVNVSSHFVYTPSPYVFALAQAHLPRLPSSLEALVSGLFDGIPAPRQPLDAHNPRTDVVITGRRAPRPIAGSGAGSGGAGAKRATVSEFVQVKHIDRVGPAGVSPAPPPNNTDSSSLVPGAQDSAPPGPTLRELWWVFYAADRALEEPRADSGLTREEVRAVRGFREQAWKLFGSAGAPRAFIGAALGLSPLQKLAVYYYIIHRERRLSPFPALVRLVGRYTQRHGLYVPRPDDPVLADAINGLFRDALAAGTTAEQLLMFDLLPPKDVPVGSDVQADSTALLRFIESQRLAVPGGVISPEHVAYLGAFLSVLYAGRGRMSAATHTARLTGVTSLVLAVGDVDRLSAFDRGAAGAASRTRAAGYLDVLLTVRLARSQHGQSV
# modifications: human herpesvirus 1
# notes: HSV-1 protein UL21
# B4: UL39: HSV-1 UL39/ICP6/10, large subunit of ribonucleotide reductase (protein)
# chain: MASRPAASSPVEARAPVGGQEAGGPSAATQGEAAGAPLAHGHHVYCQRVNGVMVLSDKTPGSASYRISDNNFVQCGSNCTMIIDGDVVRGRPQDPGAAASPAPFVAVTNIGAGSDGGTAVVAFGGTPRRSAGTSTGTQTADVPTEALGGPPPPPRFTLGGGCCSCRDTRRRSAVFGGEGDPVGPAEFVSDDRSSDSDSDDSEDTDSETLSHASSDVSGGATYDDALDSDSSSDDSLQIDGPVCRPWSNDTAPLDVCPGTPGPGADAGGPSAVDPHAPTPEAGAGLAADPAVARDDAEGLSDPRPRLGTGTAYPVPLELTPENAEAVARFLGDAVNREPALMLEYFCRCAREETKRVPPRTFGSPPRLTEDDFGLLNYALVEMQRLCLDVPPVPPNAYMPYYLREYVTRLVNGFKPLVSRSARLYRILGVLVHLRIRTREASFEEWLRSKEVALDFGLTERLREHEAQLVILAQALDHYDCLIHSTPHTLVERGLQSALKYEEFYLKRFGGHYMESVFQMYTRIAGFLACRATRGMRHIALGREGSWWEMFKFFFHRLYDHQIVPSTPAMLNLGTRNYYTSSCYLVNPQATTNKATLRAITSNVSAILARNGGIGLCVQAFNDSGPGTASVMPALKVLDSLVAAHNKESARPTGACVYLEPWHTDVRAVLRMKGVLAGEEAQRCDNIFSALWMPDLFFKRLIRHLDGEKNVTWTLFDRDTSMSLADFHGEEFEKLYQHLEVMGFGEQIPIQELAYGIVRSAATTGSPFVMFKDAVNRHYIYDTQGAAIAGSNLCTEIVHPASKRSSGVCNLGSVNLARCVSRQTFDFGRLRDAVQACVLMVNIMIDSTLQPTPQCTRGNDNLRSMGIGMQGLHTACLKLGLDLESAEFQDLNKHIAEVMLLSAMKTSNALCVRGARPFNHFKRSMYRAGRFHWERFPDARPRYEGEWEMLRQSMMKHGLRNSQFVALMPTAASAQISDVSEGFAPLFTNLFSKVTRDGETLRPNTLLLKELERTFSGKRLLEVMDSLDAKQWSVAQALPCLEPTHPLRRFKTAFDYDQKLLIDLCADRAPYVDHSQSMTLYVTEKADGTLPASTLVRLLVHAYKRGLKTGMYYCKVRKATNSGVFGGDDNIVCMSCAL
# modifications: human herpesvirus 1
# notes: HSV-1 UL39/ICP6/10, large subunit of ribonucleotide reductase
# B5: UL40: HSV-1 protein UL40 (protein)
# chain: MDSAAPALSPALTALTDQSATADLAIQIPKCPDPERYFYTSQCPDINHLRSLSILNRWLETELVFVGDEEDVSKLSEGELSFYRFLFAFLSAADDLVTENLGGLSGLFEQKDILHYYVEQECIEVVHSRVYNIIQLVLFHNNDQARREYVAGTINHPAIRAKVDWLEARVRECASVPEKFILMILIEGIFFAASFAAIAYLRTNNLLRVTCQSNDLISRDEAVHTTASCYIYNNYLGGHAKPPPDRVYGLFRQAVEIEIGFIRSQAPTDSHILSPAALAAIENYVRFSADRLLGLIHMKPLFSAPPPDASFPLSLMSTDKHTNFFECRSTSYAGAVVNDL
# modifications: human herpesvirus 1
# notes: HSV-1 protein UL40
# B6: US1/1.5: HSV-1 protein US1/ICP22 (protein)
# chain: MADISPGAFAPCVKARRPALRSPPLGTRKRKRPSRPLSSESEVESDTALESEVESETASDSTESGDQDEAPRIGGRRAPRRLGGRFFLDMSAESTTGTETDASVSDDPDDTSDWSYDDIPPRPKRARVNLRLTSSPDRRDGVIFPKMGRVRSTRETQPRAPTPSAPSPNAMLRRSVRQAQRRSSARWTPDLGYMRQCINQLFRVLRVARDPHGSANRLRHLIRDCYLMGYCRARLAPRTWCRLLQVSGGTWGMHLRNTIREVEARFDATAEPVCKLPCLETRRYGPECDLSNLEIHLSATSDDEISDATDLEAAGSDHTLASQSDTEDAPSPVTLETPEPRGSLAVRLEDEFGEFDWTPQEGSQPWLSAVVADTSSVERPGPSDSGAGRAAEDRKCLDGCRKMRFSTACPYPCSDTFLRP
# modifications: human herpesvirus 1
# notes: HSV-1 protein US1/ICP22
# Key:
# Format in all cases: cell-based, human
# [1] = system: bulk polyclonal CD8 effector cells; test: ORFeome CD8 screen: IFN-γ ELISA after adding CD8 responders to Cos-7 aAPC co-transfected with HLA class I cDNA and HSV-1 ORF; conditions: for CD8 IFN-γ responses to HSV-1 polypeptide (ORF level): amongst the 7 participants, HLA A, B, C screens; for HLA A*0101-bearing donors with CD8 T cells recognizing the ORF: primary co-transfection screens with shared HLA cDNA; for number of distinct restricting HLA alleles: CD8 recognition; for number of persons with CD8 recognition of the ORF: of 7 persons; for number of HLA-level screens in which the ORF was recognized: of 39 screens; for CD8 reactivity restricted by HLA A*0101: participant 1
# [2] = system: Bulk-expanded HSV-1-reactive CD4 T-cell lines; test: ORFeome CD4 screen: 3H thymidine proliferation to recombinant HSV-1 proteins; conditions: of 11 persons
# [3] = system: CD4+ clone 9447.28 specific for HSV-1 VP22 AA 199-211; test: 3H thymidine proliferation check of expressed VP22 with a CD4 T-cell clone; conditions: pEXP203 in vitro expressed protein
# Procedure: For expression, pEXP203 plasmids were prepared from a 3 ml ampicillin culture of transformed E. coli using a silica method (Qiagen) and mass determined by spectrophotometry. Protein expression used 50 μl volumes of the Expressionway E. coli system (Invitrogen). To check expression, 1 μl of reaction product was spotted onto nitrocellulose membranes (Whatman, Piscataway, N.J.), air-dried, blocked with 1% blocking reagent (Roche) diluted in TBS (50 mM Tris, 150 mM NaCl, pH 7.5), probed with anti-6-His mAb (Roche) diluted 1:500 in TBS-0.1% Tween −20 (TBS-T) (Roche), washed with TBS-T, incubated with horseradish peroxidase-conjugated anti-mouse IgG (Promega) diluted 1:2500 in TBS-T, washed with TBS-T, and developed with TMB substrate (Promega). Proteins failing to display a spot indicating anti-6-His binding were re-synthesized. For HSV-1 protein VP22 (gene UL49), expression was checked by triplicate, 3-day ^3H thymidine proliferation assay using cornea-derived CD4+ clone 9447.28 specific for HSV-1 VP22 AA 199-211 (18) as responders (2×10^4/well), autologous 3,300 rad γ-irradiated PBMC as APC (10^5/well), and HSV-1 VP22 or controls expressed in the pEXP203 system.
# We expressed proteins covering the large majority of the HSV-1 proteome using an in vitro bacterial expression system.
Molecule,CD8 IFN-γ responses to HSV-1 polypeptide (ORF level) [1],other results
RL2/ICP0: HSV-1 protein RL2/ICP0,elicit CD8 IFN-γ responses,CD8 IFN-γ responses to HSV-1 polypeptide (ORF level) ([1]; listed as ICP0): detected
RS1/ICP4: HSV-1 protein RS1/ICP4,elicit CD8 IFN-γ responses,CD8 IFN-γ responses to HSV-1 polypeptide (ORF level) ([1]; listed as ICP4): detected
UL1: HSV-1 protein UL1/Glycoprotein L,elicit CD8 IFN-γ responses,HLA A*0101-bearing donors with CD8 T cells recognizing the ORF [1]: each HLA A*0101-bearing donor
UL25: HSV-1 protein UL25,elicit CD8 IFN-γ responses,
UL29: HSV-1 protein UL29/ICP8,elicit CD8 IFN-γ responses,
UL31: HSV-1 protein UL31,elicit CD8 IFN-γ responses,
UL37: HSV-1 protein UL37/ICP32,elicit CD8 IFN-γ responses,
UL41: HSV-1 protein UL41/vhs,elicit CD8 IFN-γ responses,
UL46: HSV-1 tegument protein VP11/12 encoded by gene UL46,elicit CD8 IFN-γ responses,number of persons with CD4 recognition of the protein [2]: 11; number of distinct restricting HLA alleles [1]: 7; number of persons with CD8 recognition of the ORF [1]: 5; number of HLA-level screens in which the ORF was recognized [1]: 10
UL47: HSV-1 protein UL47/VP13/14,elicit CD8 IFN-γ responses,
UL48: HSV-1 protein UL48/VP16/ICP25,elicit CD8 IFN-γ responses,CD8 reactivity restricted by HLA A*0101 [1]: strong reactivity; HLA A*0101-bearing donors with CD8 T cells recognizing the ORF [1]: each HLA A*0101-bearing donor
UL49: HSV-1 protein UL49/VP22,elicit CD8 IFN-γ responses,"responses of VP22-specific CD4 T-cell clone to expressed protein [3]: strong, specific responses"
UL54: HSV-1 protein UL54 ICP27,elicit CD8 IFN-γ responses,
US7: HSV-1 protein US7/Glycoprotein I,elicit CD8 IFN-γ responses,
B1,elicit CD8 IFN-γ responses,
B2,elicit CD8 IFN-γ responses,
B3,elicit CD8 IFN-γ responses,
B4,elicit CD8 IFN-γ responses,number of distinct restricting HLA alleles [1]: 7; number of persons with CD8 recognition of the ORF [1]: 6; number of HLA-level screens in which the ORF was recognized [1]: 11; CD8 reactivity restricted by HLA A*0101 [1]: strong reactivity
B5,elicit CD8 IFN-γ responses,
B6,elicit CD8 IFN-γ responses,CD8 IFN-γ responses to HSV-1 polypeptide (ORF level) ([1]; listed as ICP22): detected
